The source of these data is ChEMBL document CHEMBL1201862, “PubChem BioAssay data set” (2004).

Assay in all cases: NCI-60 cell line screen, 48 h
Experiment [1] concerns SF-268.
Experiment [2] relates to HCT-116.
For experiment [3], the system named is T47D.
The test system of experiment [4] is HT-29.
In experiment [5] the test system is OVCAR-3.
The subject of experiment [6] is SR.
Experiment [7] concerns UO-31.
Experiment [8] has as its system HOP-92.
Experiment [9] deals with 786-0.
The test system of experiment [10] is SW-620.
For experiment [11], the system named is OVCAR-5.
The subject of experiment [12] is K562.
In experiment [13] the test system is KM12.
The subject of experiment [14] is SK-OV-3.
In experiment [15] the test system is COLO 205.
In experiment [16] the test system is EKVX.
For experiment [17], the system named is IGROV-1.
Experiment [18] deals with SF-295.
The test system of experiment [19] is SNB-75.
The subject of experiment [20] is OVCAR-8.

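How tested: cells in 96-well plates exposed to compound for 48 hours at five concentrations. Abbreviation: GI50, concentration required for 50% inhibition of growth.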 Calls of active or inactive are those of the source. Rule as the data show it: active = GI50 up to about 1.1 µM and inactive = higher.

Consider `Cn1c(=O)c2c(nc(C(=N)SCC(=O)O)n2C)n(C)c1=O`, for which the GI50 was 39.3 µM (inactive) in experiment [1]; 26.5 µM (inactive) in experiment [2]; 33.2 µM (inactive) in experiment [3]; 48.2 µM (inactive) in [4]; 43.5 µM (inactive) in [5]; 22.7 µM (inactive) in experiment [6]. For the same compound, the GI50 in experiment [7] was 41.8 µM (inactive); in [8], 36.6 µM (inactive); in experiment [9], 45.7 µM (inactive); in [10], 52.1 µM (inactive); in experiment [11], 47.5 µM (inactive); in experiment [12], 27 µM (inactive). Moreover, the GI50 in experiment [13] is 34.5 µM (inactive); in [14], 61.8 µM (inactive); in experiment [15], 31.3 µM (inactive); in experiment [16], 29.1 µM (inactive); in [17] it was 47 µM (inactive); in [18] it was 52.7 µM (inactive). Besides, the GI50 in experiment [19] was 41.2 µM (inactive); in [20], 42.7 µM (inactive).
For the compound `CC[C@@H]1CN(C)[C@H]2Cc3c([nH]c4ccccc34)C(=O)C[C@H]1C2C(=O)OC` (stereo not given in full), the GI50 in experiment [1], in experiment [2], in experiment [3], in [4], in [5] and in [6] was > 100 µM (inactive) in each case. The GI50 in experiment [7], in experiment [8], in experiment [9], in [10], in experiment [11] and in [12] was > 100 µM (inactive) in each case. In addition, the GI50 in experiment [13] is > 100 µM (inactive); in experiment [14] it was > 100 µM (inactive); in experiment [15], > 100 µM (inactive); in experiment [16], > 100 µM (inactive); in [17], > 100 µM (inactive); in [18], > 54.2 µM (inactive). Also, the GI50 in experiment [19] was > 91.4 µM (inactive); in experiment [20] it was > 100 µM (inactive).
As to `O=C1/C(=N/N=C(c2ccccc2)c2ccccc2)c2ccccc2-c2ccccc21`, the GI50 was > 100 µM (inactive) in experiment [1]; 52.1 µM (inactive) in [2]; 32.8 µM (inactive) in [3]; > 100 µM (inactive) in experiment [4]; 40.8 µM (inactive) in experiment [5]; 51.2 µM (inactive) in experiment [6]. The GI50 in [7] was 45.5 µM (inactive); in experiment [8], 25.2 µM (inactive); in experiment [9], > 100 µM (inactive); in experiment [10], > 100 µM (inactive); in experiment [11], > 100 µM (inactive); in experiment [12], > 100 µM (inactive). The GI50 is > 100 µM (inactive) in experiment [13]; > 100 µM (inactive) in experiment [14]; > 100 µM (inactive) in experiment [15]; > 100 µM (inactive) in experiment [16]; 73.1 µM (inactive) in [17]; 64 µM (inactive) in [18]. Besides, the GI50 in experiment [19] and in experiment [20] was > 100 µM (inactive) throughout.
`O=C1c2n[nH]nc2C(=O)c2n[nH]nc21`: the GI50 in [1], in experiment [2], in experiment [3], in experiment [4], in experiment [5] and in experiment [6] was > 100 µM (inactive) throughout. Also, the GI50 in experiment [7], in experiment [8], in experiment [9], in [10], in [11] and in [12] was > 100 µM (inactive) throughout. Further, the GI50 in experiment [13] is > 100 µM (inactive); in [14] it was > 100 µM (inactive); in [15], > 100 µM (inactive); in experiment [16], > 100 µM (inactive); in experiment [17], > 66.4 µM (inactive); in experiment [18], > 100 µM (inactive). The GI50 in experiment [19] and in [20] was > 100 µM (inactive) throughout.
On to `O=c1c2ccccc2[nH]c(=S)n1-c1ccc(/N=N/c2cccc3cc(O)ccc23)cc1`, for which the GI50 in experiment [1] is > 100 µM (inactive); in experiment [2], > 100 µM (inactive); in experiment [3], > 100 µM (inactive); in experiment [4], > 100 µM (inactive); in experiment [5] it was > 100 µM (inactive); in experiment [6], 94.6 µM (inactive). Moreover, the GI50 in experiment [7] was > 100 µM (inactive); in experiment [8] it was > 100 µM (inactive); in [9], 65.5 µM (inactive); in experiment [10], > 100 µM (inactive); in experiment [11], 74.1 µM (inactive); in experiment [12], 73.6 µM (inactive). Also, the GI50 is > 100 µM (inactive) in experiment [13]; > 100 µM (inactive) in [14]; 44.5 µM (inactive) in experiment [15]; > 100 µM (inactive) in experiment [16]; 64.9 µM (inactive) in experiment [17]; > 100 µM (inactive) in experiment [18]. Besides, the GI50 in [19] and in experiment [20] was > 100 µM (inactive) each time.
As to `COC(=O)[C@@H]1c2cc3c(c(O)c2[C@@H](OC2OC(C)C(OC)C(C)(OC)C2OC)C[C@]1(C)O)C(=O)c1c(O)cc2c(c1C3=O)O[C@H]1O[C@]2(C)[C@H](O)[C@@H](N(C)C)[C@@H]1O` (stereo not given in full), the GI50 is 0.00585 µM (active) in [1]; 0.00189 µM (active) in [2]; 0.0276 µM (active) in [3]; 0.00815 µM (active) in experiment [4]; 0.0351 µM (active) in experiment [5]; 0.00294 µM (active) in experiment [6]. Besides, the GI50 was 0.301 µM (active) in experiment [7]; 0.00532 µM (active) in experiment [8]; 0.00635 µM (active) in experiment [9]; 0.00456 µM (active) in [10]; 0.0815 µM (active) in experiment [11]; 0.0155 µM (active) in [12]. Also, the GI50 is 0.0065 µM (active) in experiment [13]; 0.0426 µM (active) in experiment [14]; 0.00629 µM (active) in experiment [15]; 0.0266 µM (active) in experiment [16]; 0.0101 µM (active) in [17]; 0.0154 µM (active) in experiment [18]. Also, the GI50 is 0.00608 µM (active) in experiment [19] and 0.00508 µM (active) in [20].
For `Nc1c(C(=O)c2ccc(Cl)cc2)[nH]c(Nc2ccc(Cl)cc2)c1C(=S)Nc1ccccc1`, the GI50 in experiment [1] was 4.22 µM (inactive); in [2], 3.7 µM (inactive); in experiment [3] it was 4.11 µM (inactive); in [4], 4.99 µM (inactive); in experiment [5] it was 3.19 µM (inactive); in [6], 1.92 µM (inactive). The GI50 in experiment [7] is 3.73 µM (inactive); in [8], 5.21 µM (inactive); in experiment [9] it was 2.9 µM (inactive); in [10] it was 6.43 µM (inactive); in experiment [11] it was 11.8 µM (inactive); in experiment [12], 3.29 µM (inactive). For the same compound, the GI50 in experiment [13] was 7.6 µM (inactive); in experiment [14], 6.52 µM (inactive); in [15] it was 4.13 µM (inactive); in [16], 4.9 µM (inactive); in experiment [17], 4.15 µM (inactive); in experiment [18], 2.38 µM (inactive). Moreover, the GI50 in experiment [19] is 3 µM (inactive); in experiment [20], 3.12 µM (inactive).
Turning to `[O-][S+]1SC(=S)C2C=CC=NC21` (stereo not given), the GI50 in [1] was 19.5 µM (inactive); in experiment [2] it was 13.7 µM (inactive); in experiment [3] it was 18.9 µM (inactive); in experiment [4] it was 16.1 µM (inactive); in experiment [5], 20.6 µM (inactive); in experiment [6], 11.5 µM (inactive). Besides, the GI50 is 14.7 µM (inactive) in [7]; 15.8 µM (inactive) in experiment [8]; 14.5 µM (inactive) in experiment [9]; > 100 µM (inactive) in [10]; 15.3 µM (inactive) in experiment [11]; 20.9 µM (inactive) in experiment [12]. Moreover, the GI50 in [13] is 87.7 µM (inactive); in experiment [14], 32.6 µM (inactive); in [15], 21.3 µM (inactive); in experiment [16], 13.2 µM (inactive); in experiment [17] it was 20.1 µM (inactive); in [18] it was 22.4 µM (inactive). The GI50 in experiment [19] was 18.7 µM (inactive); in experiment [20], 25 µM (inactive).
As to `O=C1OC[C@@H]2Cc3c([nH]c4ccccc34)[C@@H](c3ccc(O)cc3)N12`, the GI50 is 42.6 µM (inactive) in experiment [1]; 18.7 µM (inactive) in [2]; 51.5 µM (inactive) in experiment [3]; 34.9 µM (inactive) in experiment [4]; 17.4 µM (inactive) in [5]; 39.1 µM (inactive) in [6]. The GI50 in experiment [7] is 30.6 µM (inactive); in experiment [8] it was 96.8 µM (inactive); in experiment [9], 33.9 µM (inactive); in experiment [10], 54.1 µM (inactive); in [11], 39.4 µM (inactive); in [12] it was 32.1 µM (inactive). Further, the GI50 in [13] was 22.8 µM (inactive); in [14], > 56.8 µM (inactive); in [15] it was 22.4 µM (inactive); in [16], 36.3 µM (inactive); in experiment [17], 24.8 µM (inactive); in [18], 26.4 µM (inactive). The GI50 in experiment [19] is 17 µM (inactive); in experiment [20], 30.1 µM (inactive).
Consider `CCOC(=O)/C(=C\c1ccc(F)cc1)C(C)=O`, for which the GI50 in [1] is 29.1 µM (inactive); in experiment [2], 29.2 µM (inactive); in experiment [3], 21.8 µM (inactive); in [4], 24.4 µM (inactive); in [5], 32.8 µM (inactive); in experiment [6] it was 19 µM (inactive). Moreover, the GI50 is 16.2 µM (inactive) in experiment [7]; 15.1 µM (inactive) in experiment [8]; 22.3 µM (inactive) in experiment [9]; 16.5 µM (inactive) in [10]; 58.6 µM (inactive) in [11]; 30.3 µM (inactive) in [12]. For the same compound, the GI50 in experiment [13] was 24.3 µM (inactive); in experiment [14], 35 µM (inactive); in experiment [15], 36 µM (inactive); in [16], 22.3 µM (inactive); in experiment [17], 18.2 µM (inactive); in [18], 29.5 µM (inactive). Also, the GI50 was 25.1 µM (inactive) in [19] and 29.2 µM (inactive) in experiment [20].
